Test results taken from paper PMC8945919 (Biomolecules, 2022).
“Also recorded” adds a separate entry of the source. Where no end group is shown, it is not given here.

Legend:
trypsin [1] = molecular target: T1, trypsin (Bos taurus, UniProt P00760); assay: Trypsin digestion of RAD16-I followed by MALDI-TOF; format: in vitro ADME; parameters: key to Peak Presence in MALDI Spectra: peak presence (+); absence (−); conditions: for Peak Presence in MALDI Spectra: fragments expected after trypsin digestion of RAD16-I, peptide 100 µM in water (50 µM elsewhere in the source), trypsin 1000:1 peptide:enzyme molar ratio, 0-30 min, untreated and thermally treated (90 °C, 10 min) samples, duplicate
T1 sequence (P00760 24-246): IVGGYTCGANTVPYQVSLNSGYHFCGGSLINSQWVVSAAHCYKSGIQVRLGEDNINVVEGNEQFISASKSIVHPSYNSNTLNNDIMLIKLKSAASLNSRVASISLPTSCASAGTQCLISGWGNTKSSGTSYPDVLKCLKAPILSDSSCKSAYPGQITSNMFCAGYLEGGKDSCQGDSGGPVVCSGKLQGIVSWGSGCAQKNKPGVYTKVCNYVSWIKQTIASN
Method: Matrix-assisted laser desorption/ionization time of flight (MALDI-TOF) of trypsin-digested peptide samples was performed on a Bruker Ultraflex mass spectrometer, equipped with a pulsed nitrogen laser (337 nm). The peptide RAD16-I was diluted from a stock solution to a final concentration of 100 µM in water. Trypsin was added in a molar ratio 1000:1 (peptide:enzyme). Peptide samples were incubated with trypsin at 37 °C for 0, 1, 5, 10 and 30 min (performed in duplicate), and boiled in order to inactivate trypsin. Samples were prepared by mixing 0.5 µL of the peptide solution with 1 µL of the matrix solution (0.3 mg/mL, α-cyano-4-hydroxy-cinnamic acid in ethanol/acetone 2:1). The mixture was then spotted on an anchor-chip target (Bruker, Billerica, MA, USA) and allowed to evaporate to dryness at room temperature. Spectra were acquired in positive reflectron mode, using an acceleration voltage of 25 kV. Acquisition was performed in automated mode, using the Autoexecute software (Bruker, Billerica, MA, USA). A total of 1000 spectra, collected in 50-shot series at different positions of the sample spot were averaged for each sample. A mixture of standard peptides of known molecular mass in the range from 750–3500 Da (Bruker) was used for external calibration of the mass spectra.
To evaluate RAD16-I trypsin degradation, we incubated the peptide with trypsin with or without the previous denaturation step (incubation at 90 °C for 10 min). Thus, we incubated the RAD16-I samples with trypsin at 37 °C for different periods of time, and at each timepoint we mixed the reaction product with the α-cyano-4-hydroxy-cinnamic acid matrix and let the sample dry. Finally, samples were analyzed by MALDI. […] Furthermore, small peaks with m/z 1642 and 1558 could be detected, which may correspond to the peptide chain without one amino acid residue, an alanine and an arginine, respectively. These peptides are most likely impurities from the RAD16-I peptide synthesis.
We next aimed to determine if the structural changes observed by CD after denaturing RAD16-I (Figure 2) had any influence on proteolytic degradation. For that, peptide stock solution was diluted to 50 µM and then denatured or not for 10 min at 90 °C. Then, trypsin was added and incubated at 37 °C for different periods of time. The proteolytic reaction was inactivated by boiling the samples, and samples were finally mixed with the matrix and MALDI spectra were acquired. […] Moreover, no differences between untreated and thermally treated samples were detected.
We hypothesized that these unexpected results were due to an inefficient […] of trypsin when MALDI samples were prepared, in which trypsin was inactivated by boiling the samples. […] In this case, the samples were taken and immediately mixed with the MALDI-TOF matrix and evaporated on the sample holder.

trypsin [2] = assay: trypsin in water, molar ratio 1000:1 (peptide:enzyme); untreated (non-denatured) RAD16-I; conditions: 37 °C, up to 30 min
trypsin [3] = assay: trypsin in water, molar ratio 1000:1 (peptide:enzyme); RAD16-I denatured for 10 min at 90 °C before trypsin; conditions: 37 °C, up to 30 min
[4] = Thermal stability of secondary structure by circular dichroism; format: physicochemical
Method: Circular dichroism studies were performed on a JASCO-810 spectropolarimeter equipped with a Peltier system. RAD16-I samples (commercially available as PuraMatrix^TM, 354250, Corning, Corning, NY, USA) were diluted from a peptide stock solution (1% in water, 5.38 mM) in deionized water to a final concentration of 25, 50 and 75 µM and allowed to equilibrate at 20 or 90 °C for 10 min prior to analysis. CD data were acquired in a range from 195–240 nm at a band width of 1 nm and scan speed of 20 nm/s.
As a self-assembling peptide, RAD16-I is composed of repeating units of hydrophilic and hydrophobic amino acids, in which the charged residues alternate positive and negative charges, forming a β-sheet structure in aqueous solutions (Figure 1). This characteristic sequence is the one responsible for the self-assembly of the peptide molecules into a hydrogel, formed by a network of interweaving nanofibers from 10–20 nm in diameter and 50–200 nm in pore size and, thus, the applicability of the material as a scaffold in biomedical applications. Circular dichroism (CD) studies were performed to characterize the RAD16-I peptide structure. As a peptide with a β-sheet secondary structure, RAD16-I circular dichroism spectrum at room temperature (20 °C) presented a minimum molar ellipticity at 218 nm, which represents the β-sheet content, and a maximum of approximately 195 nm, which corresponds to the backbone twist of the peptide in the β-sheet configuration [38]. […] This spectrum was also maintained when the peptide was incubated at 40 °C.

trypsin [5] = molecular target: T1, trypsin; assay: Trypsin degradation of RAD16-I nanofibers imaged by AFM; format: in vitro ADME; conditions: RAD16-I 100 µM in water, AFM on mica
Method: (§1) To image the thermal denaturation of the self-assembling peptide, RAD16-I samples were diluted in water from a stock solution (5.38 mM) to a final concentration of 100 µM. The thermal treatment consisted of subjecting the sample to a 90 °C incubation for 10 min. Then, 1 µL of sample was deposited onto freshly cleaved mica (Grade V5 mica, Structure Probe Inc., 01804-CA, West Chester, PA, USA), rinsed twice with Milli-Q water and observed under the AFM. For RAD16-I degradation experiments, samples were prepared as follows: RAD16-I was diluted in water from a stock solution at a final concentration of 100 µM. For thermal treated samples, a 10 min denaturation step (incubation at 90 °C) was performed prior to the enzymatic degradation. Samples were cooled at room temperature and trypsin (Merck, T1426) was added at a 1:1000 molar ratio (enzyme:peptide). Samples (1 µL) were taken at 10 and 60 min and were deposited onto freshly cleaved mica, rinsed twice with Milli-Q water, air dried and scanned under the AFM.
AFM images were obtained with a silicon-scanning probe (AC240-TS, Asylum Research) with a resonance frequency of 70 KHz, spring constant 2 N/m, tip curvature radius <10 nm and 240 μm length. Images were obtained with a Multimode AFM microscope (Nanoscope IIIa, Digital Instruments, Santa Barbara, CA, USA) operating in TappingMode. AFM scans were taken at a resolution of 512 × 512 pixels and produced topographic images of samples, whose brightness of features increased as a function of height. Typical scanning parameters were as follows: tapping frequency 75 kHz, RMS amplitude before engagement 1–1.5 V, setpoint 0.7–1 V, integral and proportional gains from 0.3–0.6 and 0.4–0.6, respectively, and scan rate 1.51 Hz.
Because MALDI spectra results indicated peptide proteolysis upon trypsin treatment (Figure 4), we expected to detect structural changes in the peptide using AFM analysis. RAD16-I samples incubated with trypsin were taken at 10 and 60 min and directly spotted into freshly cleaved mica. Then the mica was rinsed with deionized water, dried and observed under the AFM. […]

[6] = Thermal denaturation of nanofibers imaged by AFM; format: physicochemical; conditions: 100 µM in water, AFM on mica
Method: as §1
AFM images were obtained with a silicon-scanning probe (AC240-TS, Asylum Research) with a resonance frequency of 70 KHz, spring constant 2 N/m, tip curvature radius <10 nm and 240 μm length. Images were obtained with a Multimode AFM microscope (Nanoscope IIIa, Digital Instruments, Santa Barbara, CA, USA) operating in TappingMode. […]

ADAR [theoretical trypsin digestion fragment of RAD16-I]
Peak Presence in MALDI Spectra (trypsin [1]; 37 °C, MALDI-TOF): +

ADARADA-NH2 [theoretical trypsin digestion fragment of RAD16-I]
Peak Presence in MALDI Spectra (trypsin [1]; 37 °C, MALDI-TOF): +

ADARADAR [theoretical trypsin digestion fragment of RAD16-I]
Peak Presence in MALDI Spectra (trypsin [1]; 37 °C, MALDI-TOF): +

ADARADARADA-NH2 [theoretical trypsin digestion fragment of RAD16-I]
Peak Presence in MALDI Spectra (trypsin [1]; 37 °C, MALDI-TOF): +

ADARADARADAR [theoretical trypsin digestion fragment of RAD16-I]
Peak Presence in MALDI Spectra (trypsin [1]; 37 °C, MALDI-TOF): +

ADARADARADARADA-NH2 [theoretical trypsin digestion fragment of RAD16-I]
Peak Presence in MALDI Spectra (trypsin [1]; 37 °C, MALDI-TOF): −

AcN-RADAR [theoretical trypsin digestion fragment of RAD16-I]
Peak Presence in MALDI Spectra (trypsin [1]; 37 °C, MALDI-TOF): +

AcN-RADARADAR [theoretical trypsin digestion fragment of RAD16-I]
Peak Presence in MALDI Spectra (trypsin [1]; 37 °C, MALDI-TOF): +

AcN-RADARADARADAR [theoretical trypsin digestion fragment of RAD16-I]
Peak Presence in MALDI Spectra (trypsin [1]; 37 °C, MALDI-TOF): +

AcN-RADARADARADARADA-CONH2
fragment found (trypsin [2]): AcN-RADAR, 1 min; also recorded: AcN-RADARADAR, 1 min; also recorded: AcN-RADARADARADAR, 1 min; also recorded: ADAR, 1 min; also recorded: ADARADARADA-CONH2, 1 min; also recorded: ADARADA-CONH2, 1 min; also recorded: ADARADARADAR, 1 min; also recorded: ADARADAR, 1 min
fragment found (trypsin [3]): AcN-RADARADAR, 1 min; also recorded: AcN-RADARADARADAR, 1 min; also recorded: ADAR, 1 min; also recorded: ADARADARADA-CONH2, 1 min; also recorded: ADARADA-CONH2, 1 min; also recorded: ADARADARADAR, 1 min; also recorded: ADARADAR, 1 min; also recorded: AcN-RADAR, 1 min

AcN-RADARADARADARADA-CONH2 [RAD16-I, self-assembling amphiphilic peptide scaffold, commercially available as PuraMatrix (1% in water)]
thermal denaturation of concentrated solutions by CD ([4]; 5 mg/mL in water, 2.9 mM, incubated at 20 or 90 °C for 10 min, then diluted to 25 µM to record spectra): thermal denaturalization was not observed
CD spectrum / secondary structure at 20 °C ([4]; 25, 50 and 75 µM in deionized water, 20 °C, 10 min equilibration, CD 195-240 nm): characteristic β-sheet spectrum
CD β-sheet spectrum at 40 °C ([4]; 25, 50 and 75 µM in deionized water, 40 °C): maintained
CD secondary structure at 90 °C, diluted samples ([4]; 25, 50 and 75 µM in deionized water, 90 °C, 10 min): structural transition from β-sheet to random coil
reversibility of the β-sheet to random coil shift ([4]; diluted samples after heating at 90 °C, kept at room temperature): irreversible at room temperature for at least a week
Peak Presence in MALDI Spectra (trypsin [1]; 37 °C, MALDI-TOF): +
peak belonging to RAD16-I (m/z 1712) after incubation with trypsin (trypsin [1]; peptide 50 µM, trypsin, 37 °C, 1 min or 30 min, reaction stopped by boiling, MALDI-TOF, regardless of incubation time, no difference between untreated and thermally treated): significantly reduced
disappearance of RAD16-I peak (m/z 1713) upon trypsin treatment, denatured versus untreated samples (trypsin [1]; thermally denatured (90 °C, 10 min) samples compared with untreated, MALDI-TOF, Figure 4h): much faster
degradation of the peptide by trypsin (m/z 1713 peak) (trypsin [1]; untreated and thermally treated samples, taken and immediately mixed with MALDI-TOF matrix and evaporated (no boiling)): very fast
nanofibers after trypsin incubation, thermally treated samples, 10 min (trypsin [5]; 90 °C 10 min then cooled, trypsin 1:1000 enzyme:peptide, 10 min): only the presence of short fibers was detected
nanofibers after trypsin incubation, thermally treated samples, 60 min (trypsin [5]; 90 °C 10 min then cooled, trypsin 1:1000 enzyme:peptide, 60 min): most of the fibers had disappeared
nanofibers after trypsin incubation, untreated (RT) samples, 10 min to 60 min (trypsin [5]; trypsin 1:1000 enzyme:peptide molar ratio): slight change in nanofiber density
nanofiber network by AFM, thermally treated samples ([6]; 90 °C for 10 min): significantly less dense
nanofiber structure by AFM, untreated samples ([6]; room temperature): dense network of long nanofibers
